Activity calls are given as the source filed them.
Legend:
Type in all cases: functional, organism-based
[1] = test system: Aegilops cylindrica; assay: Herbicidal activity against Aegilops cylindrica treated as spring post-emergence application at winter wheat-growing season relative to urea ammonium nitrate
[2] = test system: Secale cereale; assay: Herbicidal activity against feral Secale cereale (rye) treated as fall post-emergence application at winter wheat-growing season in presence of urea ammonium nitrate
[3] = test system: Secale cereale; assay: Herbicidal activity against feral Secale cereale (rye) treated as spring post-emergence application at winter wheat-growing season in presence of urea ammonium nitrate
[4] = test system: Aegilops cylindrica; assay: Herbicidal activity against Aegilops cylindrica treated as fall post-emergence application at winter wheat-growing season relative to urea ammonium nitrate

Measured: Activity

COCc1cnc(C2=NC(C)(C(C)C)C(=O)N2)c(C(=O)O)c1 (centres undefined)
active: all assays above

— ChEMBL document CHEMBL3044798, “Nitrogen concentration and application timing affect imazamox efficacy in winter wheat” (Crop Prot, 2009)
